Results on three compounds are retold here after paper PMC11354909, “Preclinical Evaluation of Soluble Epoxide Hydrolase Inhibitor AMHDU against Neuropathic Pain” (International Journal of Molecular Sciences, 2024).

What is called AUC is concentration integrated over time. As a reminder, the half-life is the time in which the quantity being followed falls by half. Usually Cmax stands for the maximum level reached in the sampled fluid or tissue. By MRT is commonly meant a mean duration of stay, worked out from the concentration-time curve. As a reminder, the Tmax is the time from dosing to the highest level. A word on the AUC(0-t): it is the area under the concentration-time curve up to a stated or last time point. As a reminder, the LD50 is the dose expected to kill half of the subjects tested. Higher therefore signals a less toxic substance. A word on the IC50: it is the concentration that gives 50% inhibition. What is called Ki is a measure of affinity in units of concentration, obtained from inhibition or displacement.

“And” between values parts separate entries of the source, which are not always exact repeats. Equal entries are not always repeated. “Also recorded” adds a separate entry of the source. Where two headings read alike, the source gives them in different places.

The test system of one series is rat paw edema model. As to the kind of experiment: Freund's adjuvant rat paw edema model (anti-inflammatory activity). The series is classed as in vivo. The conditions noted are these: for effect on paw edema (reduction of exudative reaction): day 4.
Series [1] relates to pain threshold of inflamed paw, adjuvant inflammation. As to the kind of experiment: Randall–Selitto test in adjuvant inflammation (analgesic activity). The series is classed as in vivo, rat.
Series [2] deals with STZ-rat neuropathic pain model. As to the kind of experiment: Tactile allodynia (von Frey) in streptozotocin diabetic polyneuropathy. The class given is in vivo. The protocol:
To evaluate the effect of the compound on the development of neuropathic pain, tactile hyperalgesia was evaluated in diabetic polyneuropathy in rats with 2-week streptozotocin-induced diabetes (35 mg/kg intraperitoneally). Only animals with developed allodynia and hyperalgesia were taken into the experiment, with 50% pain response indices not exceeding 6 g. Groups were formed randomly (n = 6). Tactile allodynia in rats was assessed by registering the pressure at which the animals jerked the right hind paw, avoiding exposure to stimuli of increasing degree. VonFrey hairs, which are 20 monofilaments of nylon filaments of different diameters attached to plastic handles, were applied to the right hind paw in turn from below through the mesh. The comparison drug gabapentin as well as the test compound AMHDU dissolved in 10% DMSO was administered intraperitoneally in 10 mg/kg dose 60 min. before the experiment. An equivalent volume of solvent was administered to control animals. The experiment was started with a monofilament labeled 4.31. If there was no response after 5 incidents of touching, the monofilament was successively changed to the next monofilament with higher strength. […] The 50% threshold of paw retraction during successive increases and decreases in stimulus strength was determined using the UP-AND-DOWN method.

A short description of series [3]: Pharmacokinetic study, intraperitoneal injection. The series is classed as in vivo, male Swiss–Webster mice. The protocol:
Animal experiments were approved by the Animal Use and Care Committee of University of California, Davis. Compounds were formulated in 5% EtOH, 95% PEG400 at a concentration of 0.25 mg/mL. […] […] For compound detection in plasma, 10 µL whole blood was sampled by tail nick and transferred immediately to 50 µL water containing 0.1% EDTA. Samples were extracted as previously described and stored at −20 °C until analysis. Samples were analysed by LC-MS/MS on an Agilent SL 1200 series LC system (Agilent, Palo Alto, CA, USA) connected to a 4000 Qtrap mass spectrometer (Applied Biosystems Instrument Corporation, Foster City, CA, USA) with Turbo V ion source. Liquid chromatography was performed on a Kinetex R© C18 column (100 × 2.1 mm, 1.7 μm). The mass spectrometer was operated in positive modes with primary MRM scan of 499.377/143.153 and secondary scans of 499.377/149.190 and 499.377/166.204. Peaks were integrated using Analyst software v 1.6.3 (Ab Sciex, Washington, DC, USA) and quantified against a standard curve as previously described.

Series [4] can be described thus: Acute oral toxicity (OECD test No. 423). Conditions: for Adrenal glands mass ratio to whole body weight / Brain mass ratio to whole body weight / Heart mass ratio to whole body weight / Kidneys mass ratio to whole body weight / Liver mass ratio to whole body weight / Lungs mass ratio to whole body weight / Ovaries mass ratio to whole body weight / Spleen mass ratio to whole body weight / Thymus mass ratio to whole body weight: 2 weeks after single intragastric dose, m ± SD. The protocol:
The acute toxicity of the substance by intragastric administration to female outbred rats was studied; the toxicity class, tolerated, toxic, lethal doses and character of toxic effect were determined according to the OECD test No. 423.
Experiments were performed on sexually mature laboratory white mongrel female rats, divided into experimental and control groups. Experimental animals were administered the AMHDU substance diluted in 50% dimethyl sulfoxide solution in the recommended GOST 32644-2014 initial dose of 300 mg/kg (n = 6), as well as the maximum dose of 2000 mg/kg (n = 3) in the maximum allowable volume of 20 mL/kg once intra-gastrically. Control animals (n = 6) were injected with dimethyl sulfoxide diluted 1:1 with purified water at volumes identical to those of the experimental animals. The animals were monitored for 2 weeks, continuously for the first 4 h after injection. Routine necropsy of all surviving animals was performed on day 15.

Series [5] deals with soluble epoxide hydrolase (sEH). Further details: method as in PMID 24685540. The conditions noted are these: slow tight binding sEH inhibitor; cited from earlier work.
Setting [6] is: individual animals No. 1-4, i.p., table dose 1 mg/kg, 1 mg/kg.

In the case of `O=C(NCCCCCCNC(=O)NCC12CC3CC(CC(C3)C1)C2)NCC12CC3CC(CC(C3)C1)C2` [AMHDU, 1,1′-(hexane-1,6-diyl)bis(3-((adamantan-1-yl)methyl)urea)], the “effect on the volume of the affected limb (paw edema)” value in the series with rat paw edema model (5 mg/kg i.p. 2 times a day for 4 days, day 4 after adjuvant) is “no significant effect”. Moreover, the “reduction of the primary exudative reaction (paw edema)” value in the series on rat paw edema model (30 mg/kg i.p. 2 times a day for 4 days, day 4 after adjuvant) is listed as “no statistically significant reduction”. The “anti-inflammatory effect (overall conclusion)” value in the series with rat paw edema model (5 and 30 mg/kg i.p.) is reported as “lacks anti-inflammatory activity; also recorded: negligible anti-inflammatory effect”. Further, the “effect on pain threshold” value in series [1] (5 mg/kg i.p. 2 times a day for 4 days) is listed as “no significant suppression of the pain threshold”. The “increase of paw-pulling threshold” value in series [1] (30 mg/kg i.p. 2 times a day for 4 days) is 38%. Also, the “analgesic activity compared with reference drugs” value in series [1] (AMHDU 30 mg/kg i.p. vs celecoxib 10 mg/kg, dexamethasone 5 mg/kg) was “superior to both dexamethasone and celecoxib”. Further, the “analgesic activity compared with gabapentin” value in series [2] (10 mg/kg i.p. both drugs) was “comparable to standard of care gabapentin”. In addition, the “pain threshold relative to the control group” value in series [2] (10 mg/kg i.p., 60 min before the experiment) is reported as 1.5 times. Besides, in series [3] (4 h after injection, i.p. 1.25 mg/kg), the “compound left in the bloodstream” value is recorded as “none is left in the bloodstream”. This compound also displayed an AUC in series [3] (Swiss-Webster, mouse, whole blood, ip, i.p. 1.25 mg/kg, male mice) of 26 ng·h/mL. Moreover, in series [3] (Swiss-Webster, mouse, whole blood, ip, i.p. 1.25 mg/kg, male mice, read-out: half-life (Thalf)), the half-life was ~0.167 h. Further, in series [3] (setting [6]), the AUClast was 24 ng·h/mL and 35 ng·h/mL and 31 ng·h/mL and 16 ng·h/mL; the Cmax is 24.32 ng/mL and 53.00 ng/mL and 31.93 ng/mL and 30.86 ng/mL; the MRT is 1.51 h and 1.04 h and 1.08 h and 0.55 h; the Thalf was 0.18 h and 0.16 h and 0.13 h and 0.15 h. Moreover, the Tmax in series [3] (setting [6]) was 2.0 h and 0.5 h. The Thalf in series [3] (m ± SE of 4 mice, i.p.) worked out at 0.16 ± 0.02 h. In addition, the exposure AUC(0-t) in series [3] (male, Swiss-Webster, mouse, whole blood, ip, 1.25 mg/kg, m ± SE of 4 mice) is 26.4 ± 8.6 ng·h/mL. In series [3] (male, Swiss-Webster, mouse, whole blood, ip, 1.25 mg/kg, m ± SE of 4 mice, i.p., read-out: Cmax), the Cmax was found to be 35 ± 12.4 ng/mL. Further, the MRT in series [3] (male, Swiss-Webster, mouse, whole blood, ip, 1.25 mg/kg, m ± SE of 4 mice, i.p., read-out: MRT) is ~1 h. Moreover, the Tmax in series [3] (male, Swiss-Webster, mouse, whole blood, ip, 1.25 mg/kg, mean of 4 mice, i.p., read-out: Tmax) was found to be 1 h. Moreover, in series [4] (300 mg/kg, 2 weeks), the “Adrenal glands mass ratio, change compared to control group” value was “–8.5%”; the “Brain mass ratio, change compared to control group” value is listed as “–0.1%”; the “Heart mass ratio, change compared to control group” value was “–6.4%”; the “Kidneys mass ratio, change compared to control group” value is on record as “–3.1%”. Further, in series [4] (300 mg/kg, 2 weeks), the “Liver mass ratio, change compared to control group” value is 2.1%; the “Lungs mass ratio, change compared to control group” value was “–3.5%”; the “Ovaries mass ratio, change compared to control group” value was “–1.0%”; the “Spleen mass ratio, change compared to control group” value is reported as 0.5%. The “Thymus mass ratio, change compared to control group” value in series [4] (300 mg/kg, 2 weeks) is “–4.1%”. In series [4] (300 mg/kg), the “Adrenal glands mass ratio to whole body weight” value is recorded as 0.04 ± 0.004%, the “Brain mass ratio to whole body weight” value is reported as 0.72 ± 0.02%, the “Heart mass ratio to whole body weight” value was found to be 0.33 ± 0.01% and the “Kidneys mass ratio to whole body weight” value is listed as 0.62 ± 0.02%. In series [4] (300 mg/kg), the “Liver mass ratio to whole body weight” value came to 3.03 ± 0.12%, the “Lungs mass ratio to whole body weight” value came out at 0.60 ± 0.04%, the “Ovaries mass ratio to whole body weight” value was 0.05 ± 0.003% and the “Spleen mass ratio to whole body weight” value was found to be 0.48 ± 0.01%. Also, the “Thymus mass ratio to whole body weight” value in series [4] (300 mg/kg) is on record as 0.17 ± 0.03%. In addition, in series [4] (2000 mg/kg, 2 weeks), the “Adrenal glands mass ratio, change compared to control group” value is “–14.4%”; the “Brain mass ratio, change compared to control group” value is recorded as “–0.3%”; the “Heart mass ratio, change compared to control group” value was “–10.4%”; the “Kidneys mass ratio, change compared to control group” value came to 0.4%. In series [4] (2000 mg/kg, 2 weeks), the “Liver mass ratio, change compared to control group” value was “–6.4%”; the “Lungs mass ratio, change compared to control group” value was “–10.7%”; the “Ovaries mass ratio, change compared to control group” value was found to be 18.3%; the “Spleen mass ratio, change compared to control group” value is listed as “–9.9%”. Moreover, in series [4] (2000 mg/kg, 2 weeks), the “Thymus mass ratio, change compared to control group” value was “–11.0%”. In series [4] (2000 mg/kg), the “Adrenal glands mass ratio to whole body weight” value was 0.03 ± 0.003%, the “Brain mass ratio to whole body weight” value worked out at 0.72 ± 0.02%, the “Heart mass ratio to whole body weight” value is on record as 0.32 ± 0.01% and the “Kidneys mass ratio to whole body weight” value is on record as 0.64 ± 0.03%. In series [4] (2000 mg/kg), the “Liver mass ratio to whole body weight” value was 2.77 ± 0.41%, the “Lungs mass ratio to whole body weight” value was found to be 0.56 ± 0.03%, the “Ovaries mass ratio to whole body weight” value was 0.06 ± 0.01% and the “Spleen mass ratio to whole body weight” value is 0.43 ± 0.02%. In series [4] (2000 mg/kg), the “Thymus mass ratio to whole body weight” value is on record as 0.16 ± 0.01%. Further, the “necropsy: architectonics of internal organs location” value in series [4] (day 15 after intragastric 300 and 2000 mg/kg) was “no pathological changes”. Also, the “toxicity class according to the GHS classification” value in series [4] (female, outbred white mongrel, rat, in vivo, 2 weeks) is on record as “class 5”. For the same compound, the LD50 at 2 weeks in series [4] (female, outbred white mongrel, rat, in vivo, po, LD50 (acute oral toxicity), intragastric, female rats) is > 2000 mg/kg. Further, in series [4] (intragastric, female rats), the “LD50 (acute oral toxicity)” value is 2000 to 5000 mg/kg. The “death in early and distant periods of observation” value in series [4] (single intragastric limit dose 2000 mg/kg, 2 weeks observation) is given as “does not contribute to death”. Also, in series [5], the 50% inhibitory concentration (IC50) was 0.5 nM and the inhibitory constant (Ki) is 3.1 nM.

As to `Cc1ccc(-c2cc(C(F)(F)F)nn2-c2ccc(S(N)(=O)=O)cc2)cc1` [celecoxib, reference compound], the “effect on paw edema (reduction of exudative reaction)” value in the series on rat paw edema model (celecoxib 10 mg/kg i.p. 2 times a day for 4 days) is listed as 51%.

On to `C[C@@H]1C[C@H]2[C@@H]3CCC4=CC(=O)C=C[C@]4(C)[C@@]3(F)[C@@H](O)C[C@]2(C)[C@@]1(O)C(=O)CO` [dexamethasone, reference compound], for which the “effect on paw edema (reduction of exudative reaction)” value in the series with rat paw edema model (dexamethasone 5 mg/kg i.p. 2 times a day for 4 days) came to 65%.
